Test results: patent publication US20230183218A1, “CONDENSED SUBSTITUTED HYDROPYRROLES AS ANTAGONISTS OF THE MUSCARINIC ACETYLCHOLINE RECEPTOR M4” (Vanderbilt University, priority 2020, published 2023)

Legend:
Rat M4 = target: T1, Rat M4 (Rattus norvegicus, UniProt P08485); test: mAChR M4 cell-based functional assay (calcium flux, antagonist mode vs EC80 acetylcholine), rat M4/Gqi5/CHO-K1 cells; details: for remaining activity at 30 µM: CHO-K1, % ACh maximum at 30 μM, rat M4, read-out: Rat M4 Emin (%); for IC50: decrease of response elicited by EC80 acetylcholine, rat M4/Gqi5 CHO-K1 cells
T1 construct: expressed in transfected cells; host or cells: CHO-K1 (ATCC), stably co-expressing chimeric G protein Gqi5
T1 sequence (P08485 1-478): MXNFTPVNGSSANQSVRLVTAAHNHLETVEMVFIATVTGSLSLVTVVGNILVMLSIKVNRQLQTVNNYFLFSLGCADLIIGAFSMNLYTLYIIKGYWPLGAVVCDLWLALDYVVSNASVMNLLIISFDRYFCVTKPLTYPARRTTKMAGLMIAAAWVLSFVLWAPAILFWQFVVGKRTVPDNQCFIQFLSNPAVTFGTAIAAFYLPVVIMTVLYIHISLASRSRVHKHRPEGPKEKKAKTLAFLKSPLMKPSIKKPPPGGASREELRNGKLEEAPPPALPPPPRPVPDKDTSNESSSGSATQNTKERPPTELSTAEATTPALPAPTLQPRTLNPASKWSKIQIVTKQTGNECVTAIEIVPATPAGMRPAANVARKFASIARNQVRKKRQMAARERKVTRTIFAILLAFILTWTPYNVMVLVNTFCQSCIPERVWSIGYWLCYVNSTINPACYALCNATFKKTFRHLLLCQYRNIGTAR
Outline: (§1)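 CHO-K1 cells stably expressing human or rat M4 with Gqi5, Fluo-4 loaded; calcium measured by fluorescence ratio on FDSS. Compound added, then EC20 acetylcholine at 143 s and EC80 at 268 s; IC50 from decrease of EC80 response, four-parameter logistic fit.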

Human M4 = target: T2, Human M4 (Homo sapiens, UniProt P08173); test: mAChR M4 cell-based functional assay (calcium flux, antagonist mode vs EC80 acetylcholine), human M4/Gqi5/CHO-K1 cells; details: for remaining activity at 30 µM: CHO-K1, % ACh maximum at 30 μM, human M4, read-out: Human M4 Emin (%); for IC50: decrease of response elicited by EC80 acetylcholine, human M4/Gqi5 CHO-K1 cells
T2 construct: expressed in transfected cells; host or cells: CHO-K1 (ATCC), stably co-expressing chimeric G protein Gqi5
T2 sequence (P08173 1-479): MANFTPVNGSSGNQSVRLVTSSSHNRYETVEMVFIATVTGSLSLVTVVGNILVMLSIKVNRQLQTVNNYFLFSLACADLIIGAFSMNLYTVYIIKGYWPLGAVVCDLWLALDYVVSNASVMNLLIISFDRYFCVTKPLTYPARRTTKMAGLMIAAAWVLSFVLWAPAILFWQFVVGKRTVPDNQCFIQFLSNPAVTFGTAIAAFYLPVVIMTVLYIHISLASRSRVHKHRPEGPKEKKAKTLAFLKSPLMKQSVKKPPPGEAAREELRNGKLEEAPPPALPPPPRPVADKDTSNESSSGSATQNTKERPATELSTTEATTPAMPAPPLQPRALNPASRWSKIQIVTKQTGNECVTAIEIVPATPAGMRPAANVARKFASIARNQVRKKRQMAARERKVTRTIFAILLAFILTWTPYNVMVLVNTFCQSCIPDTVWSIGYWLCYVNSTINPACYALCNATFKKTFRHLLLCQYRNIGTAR
Outline: as §1

| SMILES | remaining activity at 30 µM (Rat M4) [%] | IC50 (Rat M4) [nM] | remaining activity at 30 µM (Human M4) [%] | IC50 (Human M4) [nM] |
| --- | --- | --- | --- | --- |
| Fc1ccc(Cl)c(-c2ccc(N[C@H]3C[C@@H]4CN(C5(C6CCOCC6)CC5)C[C@@H]4C3)nn2)c1 [compound 64, (3aR,5s,6aS)-N-(6-(2-chloro-5-fluorophenyl)pyridazin-3-yl)-2-(1-(tetrahydro-2H-pyran-4-yl)cyclopropyl)octahydrocyclopenta[c]pyrrol-5-amine] | 32 | > 10000 | 4 | 161 |
| Fc1ccc(Cl)c(-c2ccc(N[C@H]3C[C@@H]4CN(C5CCCCC5)C[C@@H]4C3)nn2)c1 [compound 12, (3aR,5s,6aS)-N-(6-(2-chloro-5-fluorophenyl)pyridazin-3-yl)-2-cyclohexyloctahydrocyclopenta[c]pyrrol-5-amine] | 5 | 445 | 4 | 2.85 |
| O=C(Nc1ccc(F)cc1)c1ccc(N[C@H]2C[C@@H]3CN(CC4CCOCC4)C[C@@H]3C2)nn1 [compound 10, N-(4-fluorophenyl)-6-(((3aR,5s,6aS)-2-((tetrahydro-2H-pyran-4-yl)methyl)octahydrocyclopenta[c]pyrrol-5-yl)amino)pyridazine-3-carboxamide] | 9 | 4190 | 4 | 543 |
| O=S(=O)(c1ccccc1)c1ccc(N[C@H]2C[C@@H]3CN(Cc4ccc5c(c4)OCO5)C[C@@H]3C2)nn1 [compound 27, (3aR,5s,6aS)-2-(benzo[d][1,3]dioxol-5-ylmethyl)-N-(6-(phenylsulfonyl)pyridazin-3-yl)octahydrocyclopenta[c]pyrrol-5-amine] | 4 | 791 | 2 | 12.8 |
| Cc1cc2c(cc1CN1C[C@H]3C[C@H](Nc4ccc(S(=O)(=O)C5CCCCC5)nn4)C[C@H]3C1)OCO2 [compound 44, (3aR,5s,6aS)-N-(6-(cyclohexylsulfonyl)pyridazin-3-yl)-2-((6-methylbenzo[d][1,3]dioxol-5-yl)methyl)octahydrocyclopenta[c]pyrrol-5-amine] | 6 | 2050 | 3 | 720 |
| O=S(=O)(c1ccccc1)c1ccc(N[C@H]2C[C@@H]3CN(Cc4ccccn4)C[C@@H]3C2)nn1 [compound 25, (3aR,5s,6aS)-N-(6-(phenylsulfonyl)pyridazin-3-yl)-2-(pyridin-2-ylmethyl)octahydrocyclopenta[c]pyrrol-5-amine] | 26 | > 10000 | 6 | 436 |
| CC1(C)CC(N2C[C@H]3C[C@H](Nc4ccc(-c5cc(F)ccc5F)nn4)C[C@H]3C2)CCO1 (stereo partly drawn) [compound 55, (3aR,5s,6aS)-N-(6-(2,5-difluorophenyl)pyridazin-3-yl)-2-(2,2-dimethyltetrahydro-2H-pyran-4-yl)octahydrocyclopenta[c]pyrrol-5-amine] | 5 | 425 | 3 | 13.5 |
| CC1(C)CC(N2C[C@H]3C[C@H](Nc4ccc(N5CCC(F)(F)CC5)nn4)C[C@H]3C2)CCO1 (stereo partly drawn) [compound 58, (3aR,5s,6aS)-N-(6-(4,4-difluoropiperidin-1-yl)pyridazin-3-yl)-2-(2,2-dimethyltetrahydro-2H-pyran-4-yl)octahydrocyclopenta[c]pyrrol-5-amine] | 6 | 506 | 3 | 29.8 |
| O=S(=O)(c1ccc(N[C@H]2C[C@@H]3CN(CC4CCOCC4)C[C@@H]3C2)nn1)C1CCCCC1 [compound 34, (3aR,5s,6aS)-N-(6-(cyclohexylsulfonyl)pyridazin-3-yl)-2-((tetrahydro-2H-pyran-4-yl)methyl)octahydrocyclopenta[c]pyrrol-5-amine] | 5 | 119 | 4 | 7.75 |
| O=C(Nc1cc(F)ccc1Cl)c1ccc(N[C@H]2C[C@@H]3CN(CC4CCOCC4)C[C@@H]3C2)nn1 [compound 11, N-(2-chloro-5-fluorophenyl)-6-(((3aR,5s,6aS)-2-((tetrahydro-2H-pyran-4-yl)methyl)octahydrocyclopenta[c]pyrrol-5-yl)amino)pyridazine-3-carboxamide] | 29 | > 10000 | 4 | 2060 |
| Fc1ccc(Cl)c(-c2ccc(N[C@H]3C[C@@H]4CN(C5Cc6ccccc6C5)C[C@@H]4C3)nn2)c1 [compound 76, (3aR,5s,6aS)-N-(6-(2-chloro-5-fluorophenyl)pyridazin-3-yl)-2-(2,3-dihydro-1H-inden-2-yl)octahydrocyclopenta[c]pyrrol-5-amine] | 4 | 350 | 3 | 189 |
| Cc1nn(C)cc1-c1ccc(N[C@H]2C[C@@H]3CN(C4CCOC(C)(C)C4)C[C@@H]3C2)nn1 (stereo partly drawn) [compound 22, (3aR,5s,6aS)-N-(6-(1,3-dimethyl-1H-pyrazol-4-yl)pyridazin-3-yl)-2-(2,2-dimethyltetrahydro-2H-pyran-4-yl)octahydrocyclopenta[c]pyrrol-5-amine] | 11 | 6390 | 6 | 4.52 |
| CC1(C)CC(N2C[C@H]3C[C@H](Nc4ccc(N5CCOCC5)nn4)C[C@H]3C2)CCO1 (stereo partly drawn) [compound 60, (3aR,5s,6aS)-2-(2,2-dimethyltetrahydro-2H-pyran-4-yl)-N-(6-morpholinopyridazin-3-yl)octahydrocyclopenta[c]pyrrol-5-amine] | 14 | 5170 | 5 | 49.4 |
| CC1(C)CC(N2C[C@H]3C[C@H](Nc4ccc(-c5cc(F)ccc5Cl)nn4)C[C@H]3C2)CCO1 (stereo partly drawn) [compound 16, (3aR,5s,6aS)-N-(6-(2-chloro-5-fluorophenyl)pyridazin-3-yl)-2-(2,2-dimethyltetrahydro-2H-pyran-4-yl)octahydrocyclopenta[c]pyrrol-5-amine] | 4 | 97.3 | 4 | 1.9 |
| CC(=O)Nc1ccc(-c2ccc(N[C@H]3C[C@@H]4CN(C5CCOC(C)(C)C5)C[C@@H]4C3)nn2)cn1 (stereo partly drawn) [compound 59, N-(5-(6-(((3aR,5s,6aS)-2-(2,2-dimethyltetrahydro-2H-pyran-4-yl)octahydrocyclopenta[c]pyrrol-5-yl)amino)pyridazin-3-yl)pyridin-2-yl)acetamide] | 6 | 319 | 4 | 76.1 |
| O=S(=O)(c1ccc(N[C@H]2C[C@@H]3CN(Cc4ccc5c(c4)OCO5)C[C@@H]3C2)nn1)C1CCCCC1 [compound 37, (3aR,5s,6aS)-2-(benzo[d][1,3]dioxol-5-ylmethyl)-N-(6-(cyclohexylsulfonyl)pyridazin-3-yl)octahydrocyclopenta[c]pyrrol-5-amine] | 4 | 160 | 4 | 3.84 |
